Test [1] deals with candida albicans (virulent strain Sc5314, avirulent strain Can34). In words: Influence of antimycotics on adhesion of candida albicans to in vitro skin and intestinal test systems (co-cultivation, colony count). The test is classed as cell-based. To be noted: for influence on growth rates of the pathogen: co-cultivation with in vitro skin and intestinal test systems in presence of antimycotic; for influence on the adhesion of the pathogen: human in vitro skin and intestinal test systems, submerse culture, antimycotic 0.1, 0.5, 1.0, 2.0 μg/μl, colony count vs samples without antimycotic. The source says: In an especially preferred embodiment, the present invention relates to the co-cultivation of the human-pathological microorganism candida albicans with the human in vitro skin test system or the human in vitro intestinal test system in order to investigate the first stage of the infection process, i.e. the adhesion of the pathogen to the skin or intestinal cells. The adhesion of the pathogen is investigated using the virulent candida strain Sc5314 and the avirulent candida strain Can34 that have already been studied in a mouse macrophage model (Longitudinal et al., Cell, 90 (1997), 939-949). The in vitro skin test system or the in vitro intestinal test system is in each case inoculated in submerse culture with about 10^3 pathogenic organisms and cultivated with shaking. At defined times, for example every 30 minutes (up to a maximum of 4 hours), aliquot amounts are removed and plated out into Petri dishes with appropriate nutrient media, for example YPD full medium (Difco). After an appropriate incubation time, the number of colonies in the Petri dishes is determined. The adhesion of the pathogens on the in vitro organ test systems can be determined based on the comparison between the determined colony count and the originally inoculated number of pathogens.
In a preferred embodiment, the method for investigating the adhesion of candida on the in vitro intestinal test system according to the invention and on the in vitro skin test system according to the invention is modified in such a way that the co-cultivation preparation contains an antimycotic, in particular amphothericin B or fluconazole.
In order to determine the adhesion of the pathogen on cells, 12 each inserts of the human in vitro skin test system held in submerse culture or 12 each inserts of the in vitro intestinal test system held in submerse culture were infected each with 10^3 pathogenic organisms of the virulent candida strain Sc5314 or of the avirulent candida strain Can34 (Longitudinal et al., Cell 90 (1997), […]). The inserts were then incubated with shaking at 37° C. for 30, 60, 90, 120, 150, or 180 min.
At the specified times, the supernatant was removed and plated out in Petri dishes with YPD nutrient medium. After an incubation period of 2 days, the colonies in the Petri dishes were counted. Based on the comparison between the determined colony count and originally inoculated number of pathogens, it was determined that approximately 95% of the virulent strain and 10% of the avirulent strain adhered to the in vitro skin model after 2 hours.
In order to determine the influence of antimycotics on the adhesion of candida albicans on skin and intestinal cells, 12 inserts of the in vitro skin test system held in submerse culture and 12 inserts of the in vitro intestinal test system each were infected with 10^3 pathogenic organisms of the virulent candida strain Sc5314 or the avirulent candida strain Can34. Amphotericin B was added to 5 inserts in a concentration of 0.1, 0.5, 1.0, and 2.0 μg/μl, and fluconazole was added to 5 inserts in a concentration of 0.1, 0.5, 1.0, and 2.0 μg/μl. The inserts were then incubated with shaking at 37° C. for up to 3 days.
After 16, 24, 72, 86, and 98 hours, aliquot amounts were removed and plated out in Petri dishes with YPD nutrient media. After an incubation period of 2 days, the colonies in the Petri dishes were counted.

The test system is the same in test [2]. In words: Influence of antimycotics on penetration/invasion of candida albicans into in vitro skin and intestinal test systems (histology, PAS staining). The conditions noted are these: human in vitro skin and intestinal test systems, antimycotic 0.1, 0.5, 1.0, 2.0 μg/μl, histology after approximately 18 to 24 hours. The test is classed as cell-based. The source says:
In another particularly preferred embodiment, the present invention relates to the co-cultivation of the human-pathogenic microorganism candida albicans with the human in vitro skin test system prepared according to the invention or with the human in vitro intestinal test prepared according to the invention in order to investigate another stage of the infection process, i.e. the penetration/invasion of the pathogen into cells. For this, the organoid tissue test systems are co-cultivated using the airlift process with the previously described avirulent and virulent pathogen strains. The pathogen is preferably fixed with a cell count of 10^3/ml in 1% agar, and agar pieces with a diameter of 4 mm are placed onto the organoid tissue test systems for up to 98 hours. The penetration of the pathogen into the organoid structures was studied after 16 hours, 24 hours, 72 hours, 86 hours, and 98 hours using histological methods on thin sections, employing the PAS staining method (McManaus, Romeis, 17th ed., page 393). Using the histological sections, the invasion process of the virulent candida strain into the deeper layers of the connective-tissue-like matrix can be documented.
In another preferred embodiment, the method for investigating the penetration/invasion of candida with the in vitro intestinal test system and the in vitro skin test system was modified in such a way that the co-cultivation preparation contained amphothericin B or fluconazole.
In order to determine the penetration of the pathogen, 12 inserts of the in vitro skin system held in airlift culture and 12 inserts of the in vitro intestinal system held in airlift culture each were infected with 10^3 pathogenic organisms of the virulent candida strain Sc5314 or the avirulent candida strain Can34. The inserts then were incubated up to 3 days at 37° C.
The penetration of the pathogen into the organoid structures was investigated after about 18 to 24 hours using histological methods on thin sections, employing the PAS staining method both for the in vitro skin system as well as for the in vitro intestinal system. […]

Entries after “also recorded” stand apart in the source; their conditions may differ.

On to `C[C@@H]1[C@H](O)[C@@H](C)/C=C/C=C/C=C/C=C/C=C/C=C/C=C/[C@H](O[C@@H]2O[C@H](C)[C@@H](O)[C@H](N)[C@@H]2O)C[C@@H]2O[C@](O)(C[C@@H](O)C[C@@H](O)[C@H](O)CC[C@@H](O)C[C@@H](O)CC(=O)O[C@H]1C)C[C@H](O)[C@H]2C(=O)O` [amphotericin B], for which, in test [1], the “influence on growth rates of the pathogen” value is given as “influenced its growth rates”. Besides, the “influence on the adhesion of the pathogen” value in test [1] was “adhesion of the virulent candida strain could only be prevented by adding amphotericin B and fluconazole and by an inhibition of growth”; in test [1] (listed as amphothericin B) it was “no influence on the adhesion of the pathogen”. Moreover, the “invasion (penetration) of the virulent candida strain into the organoid structures” value is recorded as “apparently prevents the invasion of the virulent candida strain by inhibiting its growth” in test [2] and “could only be prevented with a complete inhibition of growth” in test [2] (listed as amphothericin B).
Regarding `OC(Cn1cncn1)(Cn1cncn1)c1ccc(F)cc1F` [fluconazole], in test [1], the “influence on growth rates of the pathogen” value is recorded as “influenced its growth rates”; the “influence on the adhesion of the pathogen” value is “no influence on the adhesion of the pathogen; also recorded: adhesion of the virulent candida strain could only be prevented by adding amphotericin B and fluconazole and by an inhibition of growth”. Besides, in test [2], the “invasion (penetration) of the virulent candida strain into the organoid structures” value is given as “could only be prevented with a complete inhibition of growth; also recorded: apparently prevents the invasion of the virulent candida strain by inhibiting its growth”.

The record behind these values is patent publication US20040023907A1, “Infection model” (priority 2000, published 2004).
